Test results from ChEMBL document CHEMBL4049384, “Synthesis and evaluation of an injectable everolimus prodrug” (Bioorg Med Chem Lett, 2017).
≈ marks a conversion by molar mass, not a printed value.

Legend:
Mus musculus [1] = experiment: Toxicity in nude mouse xenografted with human OS-RC2 cells assessed as body weight loss at 6 mg/kg administered three times a week through oral gavage and measured on Day 8 (reference value: 8.5 %); format: organism-based; settings: in vivo
[2] = Drug uptake in Sprague-Dawley rat blood at 10 mg/kg, po after 0.5 hrs by HPLC method; format: ADME, organism-based; settings: read-out: Drug uptake
[3] = Drug uptake in Sprague-Dawley rat blood at 10 mg/kg, po after 24 hrs by HPLC method; format: ADME, organism-based; settings: read-out: Drug uptake
[4] = Tmax in Sprague-Dawley rat at 10 mg/kg, po; format: ADME, organism-based; settings: in vivo
OS-RC-2 [5] = experiment: Antitumor activity against human OS-RC2 cells xenografted in nude mouse assessed as reduction in tumor volume at 6 mg/kg administered three times a week through oral gavage measured on day 22 relative to control; format: functional
Mus musculus [6] = experiment: Toxicity in nude mouse xenografted with human OS-RC2 cells assessed as body weight loss at 6 mg/kg administered three times a week through oral gavage and measured on Day 22 (reference value: 23.1 %); format: organism-based; settings: in vivo
[7] = Drug uptake in Sprague-Dawley rat blood at 10 mg/kg, po after 0.25 hrs by HPLC method; format: ADME, organism-based; settings: read-out: Drug uptake
[8] = Solubility of the compound in water; format: physicochemical
[9] = Drug uptake in Sprague-Dawley rat blood at 10 mg/kg, po after 1 hr by HPLC method; format: ADME, organism-based; settings: read-out: Drug uptake
OS-RC-2 [10] = experiment: Antitumor activity against human OS-RC2 cells xenografted in nude mouse assessed as reduction in tumor volume at 6 mg/kg administered three times a week through oral gavage measured on day 29 relative to control; format: functional
Mus musculus [11] = experiment: Toxicity in nude mouse xenografted with human OS-RC-2 cells assessed as death at 6 mg/kg administered three times a week through oral gavage after 32 days; format: organism-based; settings: in vivo, 768 h
OS-RC-2 [12] = experiment: Antitumor activity against human OS-RC2 cells xenografted in nude mouse assessed as reduction in tumor volume at 6 mg/kg administered three times a week through oral gavage measured on day 26 relative to control; format: functional
OS-RC-2 [13] = experiment: Antitumor activity against human OS-RC2 cells xenografted in nude mouse assessed as reduction in tumor volume at 6 mg/kg administered three times a week through oral gavage measured on day 19 relative to control; format: functional
Mus musculus [14] = experiment: Toxicity in nude mouse xenografted with human OS-RC-2 cells assessed as body weight loss at 6 mg/kg administered three times a week through oral gavage measured on day 5 (reference value: 1.9%); format: organism-based; settings: in vivo
PC-3 = experiment: Antiproliferative activity against human PC3 cells after 48 hrs by MTT assay; format: functional, cell-based; settings: PC-3, 48 h
[15] = AUC (0 to t) in Sprague-Dawley rat at 10 mg/kg, po; format: ADME, organism-based; settings: in vivo
[16] = Drug uptake in Sprague-Dawley rat blood at 10 mg/kg, po after 4 hrs by HPLC method; format: ADME, organism-based; settings: read-out: Drug uptake
MDA-MB-435 = experiment: Antiproliferative activity against human MDA-MB-435 cells after 48 hrs by MTT assay; format: functional, cell-based; settings: MDA-MB-435, 48 h
[17] = Half life in Sprague-Dawley rat at 10 mg/kg, po; format: ADME, organism-based; settings: in vivo
OS-RC-2 [18] = experiment: Antitumor activity against human OS-RC2 cells xenografted in nude mouse assessed as reduction in tumor volume at 6 mg/kg administered three times a week through oral gavage measured on day 5 relative to control; format: functional
Mus musculus [19] = experiment: Toxicity in nude mouse xenografted with human OS-RC2 cells assessed as body weight loss at 6 mg/kg administered three times a week through oral gavage and measured on Day 12 (reference value: 15 %); format: organism-based; settings: in vivo
Mus musculus [20] = experiment: Toxicity in nude mouse xenografted with human OS-RC2 cells assessed as body weight loss at 6 mg/kg administered three times a week through oral gavage and measured on Day 29 (reference value: 31.2 %); format: organism-based; settings: in vivo
OS-RC-2 [21] = experiment: Antitumor activity against human OS-RC2 cells xenografted in nude mouse assessed as tumor growth inhibition at 6 mg/kg administered three times a week through oral gavage measured after 32 days relative to control; format: functional; settings: OS-RC-2, po, 768 h, read-out: TGI
[22] = Drug uptake in Sprague-Dawley rat blood at 10 mg/kg, po after 2 hrs by HPLC method; format: ADME, organism-based; settings: read-out: Drug uptake
OS-RC-2 [23] = experiment: Antitumor activity against human OS-RC2 cells xenografted in nude mouse assessed as reduction in tumor volume at 6 mg/kg administered three times a week through oral gavage measured on day 8 relative to control; format: functional
Mus musculus [24] = experiment: Toxicity in nude mouse xenografted with human OS-RC-2 cells assessed as body weight at 6 mg/kg administered three times a week through oral gavage measured on day 1 (reference value: 20.4 +/- 0.33 g); format: organism-based; settings: in vivo
[25] = AUC (0 to infinity) in Sprague-Dawley rat at 10 mg/kg, po; format: ADME, organism-based; parameters: dose 10 mg/kg, route oral, time infinity; settings: in vivo
Mus musculus [26] = experiment: Toxicity in nude mouse xenografted with human OS-RC-2 cells assessed as body weight loss at 6 mg/kg administered three times a week through oral gavage measured after 32 days (reference value: 33%); format: organism-based; settings: in vivo, 768 h
Mus musculus [27] = experiment: Toxicity in nude mouse xenografted with human OS-RC2 cells assessed as body weight loss at 6 mg/kg administered three times a week through oral gavage and measured on day 15 (reference value: 20.2 %); format: organism-based; settings: in vivo
OS-RC-2 [28] = experiment: Antitumor activity against human OS-RC2 cells xenografted in nude mouse assessed as reduction in tumor volume at 6 mg/kg administered three times a week through oral gavage measured on day 12 relative to control; format: functional
[29] = Drug uptake in Sprague-Dawley rat blood at 10 mg/kg, po after 6 hrs by HPLC method; format: ADME, organism-based; settings: read-out: Drug uptake
NCI-H460 = experiment: Antiproliferative activity against human NCI-H460 cells after 48 hrs by MTT assay; format: functional, cell-based; settings: NCI-H460, 48 h
OS-RC-2 [30] = experiment: Antitumor activity against human OS-RC2 cells xenografted in nude mouse assessed as tumor volume at 6 mg/kg administered three times a week through oral gavage measured on day 1 (reference value: 167.51 +/- 17.09 mm3); format: functional
DU-145 = experiment: Antiproliferative activity against human DU145 cells after 48 hrs by MTT assay; format: functional, cell-based; settings: DU-145, 48 h
[31] = Cmax in Sprague-Dawley rat at 10 mg/kg, po; format: ADME, organism-based; parameters: dose 10 mg/kg, route oral; settings: in vivo
[32] = Drug uptake in Sprague-Dawley rat blood at 10 mg/kg, po after 3 hrs by HPLC method; format: ADME, organism-based; settings: read-out: Drug uptake
Mus musculus [33] = experiment: Toxicity in nude mouse xenografted with human OS-RC2 cells assessed as body weight loss at 6 mg/kg administered three times a week through oral gavage and measured on Day 19 (reference value: 23.1 %); format: organism-based; settings: in vivo
HepG2 = experiment: Antiproliferative activity against human HepG2 cells after 48 hrs by MTT assay; format: functional, cell-based; settings: HepG2, 48 h
OS-RC-2 [34] = experiment: Antitumor activity against human OS-RC2 cells xenografted in nude mouse assessed as reduction in tumor volume at 6 mg/kg administered three times a week through oral gavage measured on day 15 relative to control; format: functional
[35] = Drug uptake in Sprague-Dawley rat blood at 10 mg/kg, po after 8 hrs by HPLC method; format: ADME, organism-based; settings: read-out: Drug uptake
OS-RC-2 [36] = experiment: Antitumor activity against human OS-RC2 cells xenografted in nude mouse assessed as reduction in tumor volume at 6 mg/kg administered three times a week through oral gavage measured on day 32 relative to control; format: functional
Mus musculus [37] = experiment: Toxicity in nude mouse xenografted with human OS-RC2 cells assessed as body weight loss at 6 mg/kg administered three times a week through oral gavage and measured on Day 26 (reference value: 28.2 %); format: organism-based; settings: in vivo
[38] = Drug uptake in Sprague-Dawley rat blood at 10 mg/kg, po after 1.5 hrs by HPLC method; format: ADME, organism-based; settings: read-out: Drug uptake
OS-RC-2 [39] = experiment: Antitumor activity against human OS-RC2 cells xenografted in nude mouse assessed as tumor weight at 6 mg/kg administered three times a week through oral gavage measured after 32 days (reference value: 0.68 +/- 0.06 g); format: functional

CO[C@H]1C[C@@H]2CC[C@@H](C)[C@@](O)(O2)C(=O)C(=O)N2CCCC[C@H]2C(=O)O[C@H]([C@H](C)C[C@@H]2CC[C@@H](OCCO)[C@H](OC)C2)CC(=O)[C@H](C)/C=C(\C)[C@@H](O)[C@@H](OC)C(=O)[C@H](C)C[C@H](C)\C=C/C=C/C=C/1C
Activity (Mus musculus [1]): 3.1% | concentration at 0.5 h [2]: 100 ng/mL | concentration at 24 h [3]: 2.28 ng/mL | Tmax [4]: 1.91 h | T/C (OS-RC-2 [5]): 0.69% | Activity (Mus musculus [6]): 9.7% | concentration at 0.25 h [7]: 17.4 ng/mL | solubility [8]: 1 µg/mL (≈ 1.04 µM) | concentration at 1 h [9]: 99.2 ng/mL | T/C (OS-RC-2 [10]): 0.72% | Activity (Mus musculus [11]): Non-Toxic | T/C (OS-RC-2 [12]): 0.71% | T/C (OS-RC-2 [13]): 0.71% | Activity (Mus musculus [14]): 2.7% | IC50 (PC-3): 30.2 µM | AUC(0-t) [15]: 454 ng·h/mL | concentration at 4 h [16]: 61.4 ng/mL | IC50 (MDA-MB-435): 62.5 µM | half-life [17]: 2.2 h | T/C (OS-RC-2 [18]): 79% | Activity (Mus musculus [19]): 8.2% | Activity (Mus musculus [20]): 10.5% | inhibition in vivo at 6 mg/kg (OS-RC-2 [21]): 41.1% | concentration at 2 h [22]: 69.7 ng/mL | T/C (OS-RC-2 [23]): 76% | Activity (Mus musculus [24]): 20.94 g | AUC(0-inf) [25]: 454 ng·h/mL | Activity (Mus musculus [26]): 11.7% | Activity (Mus musculus [27]): 8.7% | T/C (OS-RC-2 [28]): 0.72% | concentration at 6 h [29]: 32.4 ng/mL | IC50 (NCI-H460): 99.8 µM | Activity (OS-RC-2 [30]): 167.38 mm3 | IC50 (DU-145): 57.3 µM | Cmax [31]: 126 ng/mL | concentration at 3 h [32]: 64.3 ng/mL | Activity (Mus musculus [33]): 9.7% | IC50 (HepG2): 52.3 µM | T/C (OS-RC-2 [34]): 0.66% | concentration at 8 h [35]: 16.3 ng/mL | T/C (OS-RC-2 [36]): 0.77% | Activity (Mus musculus [37]): 9.1% | concentration at 1.5 h [38]: 90.4 ng/mL | Activity (OS-RC-2 [39]): 0.4 g
